Data reported in patent US20210221822A1, “TRICYCLIC DERIVATIVES INHIBITOR, PREPARATION METHOD, AND APPLICATIONS THEREOF” (Jiangsu Hansoh Pharmaceutical Group Co., Ltd., priority 2018, published 2021).

Legend:
[1] = target: T1, PI3Kα (Homo sapiens, UniProt P42336); assay: ADP-Glo lipid kinase assay, PI3Kα kinase activity; assay type: biochemical; conditions: for IC50: ADP-Glo, 0.1 nM enzyme, 120 min, 50 μM ATP; for Selectivity of PI3Kα vs PI3Kβ: ratio of IC50 PI3Kβ to IC50 PI3Kα; for Selectivity of PI3Kα vs PI3Kγ: ratio of IC50 PI3Kγ to IC50 PI3Kα; for Selectivity of PI3Kα vs PI3Kδ: ratio of IC50 PI3Kδ to IC50 PI3Kα
T1 construct: purchased Promega V1721
Method: (§1) Experimental method: Promega's ADP-Glo lipid kinase assay method (Promega #V9102) was applied in this experiment. Lipid kinase PI3Kα/β/γ/δ catalyzed the generation of ADP from ATP in the presence of the substrate PIP2: 3PS and ATP. The lipid kinase activity was characterized by measuring the ADP content in the reaction, and the half inhibitory concentration IC50 of the compound on inhibiting PI3Kα/β/γ/δ kinase activity was thus obtained.
(§2) The kinase reaction was carried out in a white 384-well plate (Perkin Elmer #6007299). 2 μL of the compound solution of different concentrations diluted with ddH2O containing 1% DMSO was added to each well. 2 μL of ddH2O containing 1% DMSO was added to the positive control well. 2 μL of 0.1-2 nM PI3K kinase solution diluted with 5× kinase buffer (HEPES 250 mM, MgCl2 15 mM, NaCl 250 mM, BSA 0.05%) was added to each well. 2 μL of 5× kinase buffer was added to the negative control well. 4 μL of 50 μM substrate PIP2: 3PS (Promega #V1701) formulated with 10× Dilution buffer and ddH2O was added to all wells. Finally, 2 μL of […] ATP solution diluted with water was added to start the reaction. After the reaction was carried out at room temperature for 90 to 120 minutes, 10 μL of ADP-Glo Reagent (containing 10 mM MgCl2) was added to each well, and reacted at room temperature for 60 minutes to remove excess ATP in the reaction. 20 μL of Kinase Detection Reagent was added to each well, and reacted at room temperature in the dark for 20 minutes. The chemiluminescence value was measured by the BioTek Synergy H1 microplate reader.
(§3) The percentage inhibition data of the compound-treated well was calculated through the positive control well (DMSO control well) and negative control well (no kinase added) on the plate {% inhibition rate=100−[(test compound value−negative control value)]/(positive control value−negative control value)×100}. The IC50 value was calculated by fitting the data of different concentrations and corresponding percentage inhibition rates to a four-parameter nonlinear logic formula with GraphPad prism.

[2] = target: T2, PI3Kβ (Homo sapiens, UniProt P42338); assay: ADP-Glo lipid kinase assay, PI3Kβ kinase activity; assay type: biochemical; conditions: 0.4 nM enzyme, 90 min, 100 μM ATP
T2 construct: purchased Carna 11-102
Method: as §1, §2, §3

[3] = target: T3, PI3Kγ (Homo sapiens, UniProt P48736); assay: ADP-Glo lipid kinase assay, PI3Kγ kinase activity; assay type: biochemical; conditions: 0.4 nM enzyme, 120 min, 50 μM ATP
T3 construct: purchased Thermofisher PV4786
Method: as §1, §2, §3

[4] = target: T4, PI3Kδ (Homo sapiens, UniProt O00329); assay: ADP-Glo lipid kinase assay, PI3Kδ kinase activity; assay type: biochemical; conditions: 0.1 nM enzyme, 90 min, 100 μM ATP
T4 construct: purchased Carna 11-103
Method: as §1, §2, §3

[5] = Pharmacokinetic (PK) assay in mice; assay type: in vivo; conditions: male, Balb/c, mouse, plasma, po, single intragastric 5 mg/kg; for AUC(0-t): read-out: Area under curve AUC0-t; for AUC(0-inf): read-out: Area under curve AUC0-∞; for half-life: read-out: Half-life t1/2(h) (converted); for MRT: read-out: Mean residence time MRT; for Tmax: read-out: Peak time tmax; for Cmax: read-out: Plasma concentration Cmax
Method: The pharmacokinetic assay of the preferred compounds of the examples of the present invention in mice was carried out in Balb/c male mice (Shanghai Jiesijie Laboratory Animal Co., LTD). • Administration mode: single intragastric administration. • Administration dose: 5 mg/10 ml/kg (body weight). • Formulation: the compound was dissolved in 0.5% CMC-Na by ultrasound to obtain a clear solution or homogeneous suspension. • Sampling points: 0.5, 1, 2, 4, 6, 8 and 24 hours after administration. • Sample process: • 1) 0.1 mL of blood was taken from the orbit, placed in a K2-EDTA tube, and centrifuged for 5 to 20 minutes at room temperature at 1000 to 3000×g to separate the plasma, which was then stored at −80° C. • 2) 160 uL of acetonitrile was added to 40 uL of plasma sample for precipitation, and then the mixture was centrifuged for 5 to 20 minutes at 500 to 2000×g. • 3) 100 uL of processed supernatant was taken and analyzed by LC/MS/MS assay to determine the concentration of the test compound. • LC-MS/MS assay: • Liquid chromatography condition: Shimadzu LC-20AD pump • Mass spectrometry condition: AB Sciex API 4000 mass spectrometer • Chromatographic column: phenomenex Gemiu 5 μm C18 50×4.6 mm • Mobile phase: solution A was 0.1% aqueous formic acid solution, and solution B was acetonitrile • Flow rate: 0.8 mL/min • Elution time: 0-4 minutes gradient elution • Pharmacokinetics: […]
The main parameters were calculated using WinNonlin 6.1.

T4 sequence (O00329 whole entry): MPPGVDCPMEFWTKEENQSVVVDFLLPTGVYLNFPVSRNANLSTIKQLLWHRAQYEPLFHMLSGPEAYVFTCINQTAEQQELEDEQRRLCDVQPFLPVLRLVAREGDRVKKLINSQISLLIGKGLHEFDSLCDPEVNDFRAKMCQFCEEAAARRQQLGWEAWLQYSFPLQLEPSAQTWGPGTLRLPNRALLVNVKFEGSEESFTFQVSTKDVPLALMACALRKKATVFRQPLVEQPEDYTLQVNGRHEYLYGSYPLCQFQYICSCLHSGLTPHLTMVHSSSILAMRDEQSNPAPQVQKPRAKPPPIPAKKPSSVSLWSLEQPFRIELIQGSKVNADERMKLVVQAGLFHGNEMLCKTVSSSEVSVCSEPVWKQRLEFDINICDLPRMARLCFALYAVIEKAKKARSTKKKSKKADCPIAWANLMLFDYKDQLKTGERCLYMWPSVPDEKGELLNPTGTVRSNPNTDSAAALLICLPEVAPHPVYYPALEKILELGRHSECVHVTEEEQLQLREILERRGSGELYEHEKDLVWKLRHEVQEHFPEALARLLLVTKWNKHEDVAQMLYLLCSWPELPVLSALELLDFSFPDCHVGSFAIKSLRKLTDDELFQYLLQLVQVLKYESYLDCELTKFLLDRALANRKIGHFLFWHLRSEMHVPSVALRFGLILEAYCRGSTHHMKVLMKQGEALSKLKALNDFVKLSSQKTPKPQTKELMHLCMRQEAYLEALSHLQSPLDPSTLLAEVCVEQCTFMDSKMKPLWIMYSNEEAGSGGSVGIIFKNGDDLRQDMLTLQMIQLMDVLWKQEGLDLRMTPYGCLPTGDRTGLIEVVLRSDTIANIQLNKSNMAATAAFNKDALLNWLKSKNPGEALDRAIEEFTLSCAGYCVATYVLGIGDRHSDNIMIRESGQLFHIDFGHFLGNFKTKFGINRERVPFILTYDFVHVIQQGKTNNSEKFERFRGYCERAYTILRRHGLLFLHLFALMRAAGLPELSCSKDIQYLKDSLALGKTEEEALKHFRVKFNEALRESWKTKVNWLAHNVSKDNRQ
T4 sequence (P27986 whole entry partner): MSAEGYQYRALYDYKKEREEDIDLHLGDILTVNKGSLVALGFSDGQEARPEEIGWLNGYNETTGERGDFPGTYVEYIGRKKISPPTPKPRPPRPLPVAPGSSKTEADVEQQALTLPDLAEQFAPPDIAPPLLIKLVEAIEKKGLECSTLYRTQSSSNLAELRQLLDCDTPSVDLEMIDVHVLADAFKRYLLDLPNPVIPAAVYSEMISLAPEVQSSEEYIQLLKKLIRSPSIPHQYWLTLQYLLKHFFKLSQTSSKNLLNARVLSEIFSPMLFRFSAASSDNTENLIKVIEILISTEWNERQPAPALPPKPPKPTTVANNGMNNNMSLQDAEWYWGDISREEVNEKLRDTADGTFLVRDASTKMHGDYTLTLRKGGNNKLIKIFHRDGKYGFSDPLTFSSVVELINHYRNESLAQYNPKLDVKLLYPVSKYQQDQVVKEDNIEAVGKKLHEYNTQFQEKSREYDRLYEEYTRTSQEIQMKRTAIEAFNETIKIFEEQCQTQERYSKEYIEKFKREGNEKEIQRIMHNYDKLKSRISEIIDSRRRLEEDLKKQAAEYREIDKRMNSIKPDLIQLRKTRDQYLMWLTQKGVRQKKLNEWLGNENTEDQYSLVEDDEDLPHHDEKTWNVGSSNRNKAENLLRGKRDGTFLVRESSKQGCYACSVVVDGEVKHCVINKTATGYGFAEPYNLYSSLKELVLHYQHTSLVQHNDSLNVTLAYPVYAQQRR
T2 sequence (P42338 whole entry): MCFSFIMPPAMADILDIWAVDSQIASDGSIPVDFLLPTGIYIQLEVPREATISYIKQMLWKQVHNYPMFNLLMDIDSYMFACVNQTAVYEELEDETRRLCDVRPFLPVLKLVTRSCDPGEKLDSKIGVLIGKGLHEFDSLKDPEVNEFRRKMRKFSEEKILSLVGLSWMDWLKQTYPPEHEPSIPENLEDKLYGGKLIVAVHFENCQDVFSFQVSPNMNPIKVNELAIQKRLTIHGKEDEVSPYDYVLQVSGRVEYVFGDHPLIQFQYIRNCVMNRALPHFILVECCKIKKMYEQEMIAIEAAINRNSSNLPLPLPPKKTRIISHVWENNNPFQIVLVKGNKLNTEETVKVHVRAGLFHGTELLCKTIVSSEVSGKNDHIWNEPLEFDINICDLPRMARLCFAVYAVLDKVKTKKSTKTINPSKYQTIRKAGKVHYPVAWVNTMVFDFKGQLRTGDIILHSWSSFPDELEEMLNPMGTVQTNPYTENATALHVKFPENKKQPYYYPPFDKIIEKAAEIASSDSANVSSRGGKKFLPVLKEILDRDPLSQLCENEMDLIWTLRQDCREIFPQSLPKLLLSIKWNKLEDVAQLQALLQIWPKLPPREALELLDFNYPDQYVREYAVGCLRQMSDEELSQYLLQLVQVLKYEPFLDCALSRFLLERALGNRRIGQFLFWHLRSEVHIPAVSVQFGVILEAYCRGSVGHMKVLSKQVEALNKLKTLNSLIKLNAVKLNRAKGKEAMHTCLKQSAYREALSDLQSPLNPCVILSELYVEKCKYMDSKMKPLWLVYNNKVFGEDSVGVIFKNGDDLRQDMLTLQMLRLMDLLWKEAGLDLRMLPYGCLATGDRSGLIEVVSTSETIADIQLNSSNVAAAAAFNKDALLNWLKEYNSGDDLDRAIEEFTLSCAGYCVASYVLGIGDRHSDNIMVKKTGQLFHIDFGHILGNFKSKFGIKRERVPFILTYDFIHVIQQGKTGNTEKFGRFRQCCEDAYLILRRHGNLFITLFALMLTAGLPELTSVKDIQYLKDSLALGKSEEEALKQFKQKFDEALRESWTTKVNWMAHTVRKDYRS
T2 sequence (P27986 whole entry partner): as the sequence (P27986 whole entry partner) above
T3 sequence (P48736 whole entry): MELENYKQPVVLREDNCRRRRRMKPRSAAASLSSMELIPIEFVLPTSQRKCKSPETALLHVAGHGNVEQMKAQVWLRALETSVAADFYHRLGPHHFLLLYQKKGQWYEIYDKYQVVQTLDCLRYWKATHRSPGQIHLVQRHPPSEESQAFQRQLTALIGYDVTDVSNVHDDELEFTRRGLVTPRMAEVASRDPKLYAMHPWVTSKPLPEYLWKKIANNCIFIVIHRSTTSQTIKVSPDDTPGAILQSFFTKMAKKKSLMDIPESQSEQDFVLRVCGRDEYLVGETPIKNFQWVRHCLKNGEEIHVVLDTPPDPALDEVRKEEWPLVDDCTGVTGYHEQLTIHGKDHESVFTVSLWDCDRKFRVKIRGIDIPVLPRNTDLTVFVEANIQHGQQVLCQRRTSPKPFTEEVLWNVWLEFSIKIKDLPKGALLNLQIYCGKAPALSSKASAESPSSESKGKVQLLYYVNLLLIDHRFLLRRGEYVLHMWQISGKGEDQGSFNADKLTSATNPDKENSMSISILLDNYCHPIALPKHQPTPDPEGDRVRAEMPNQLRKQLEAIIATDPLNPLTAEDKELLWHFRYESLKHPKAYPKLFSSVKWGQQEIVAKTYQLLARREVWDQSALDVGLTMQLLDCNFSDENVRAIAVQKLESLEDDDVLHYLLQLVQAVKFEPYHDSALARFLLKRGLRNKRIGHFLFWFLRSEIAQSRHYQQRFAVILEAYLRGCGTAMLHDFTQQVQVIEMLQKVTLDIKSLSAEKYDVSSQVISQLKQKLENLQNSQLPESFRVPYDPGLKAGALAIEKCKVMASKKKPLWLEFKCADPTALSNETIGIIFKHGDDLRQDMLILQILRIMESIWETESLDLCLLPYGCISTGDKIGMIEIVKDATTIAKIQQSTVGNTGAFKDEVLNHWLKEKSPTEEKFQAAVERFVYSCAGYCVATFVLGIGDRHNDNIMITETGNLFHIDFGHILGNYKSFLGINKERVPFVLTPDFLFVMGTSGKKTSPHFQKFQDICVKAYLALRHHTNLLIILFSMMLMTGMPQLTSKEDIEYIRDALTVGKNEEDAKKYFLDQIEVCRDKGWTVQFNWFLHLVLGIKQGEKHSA
T1 sequence (P42336 whole entry): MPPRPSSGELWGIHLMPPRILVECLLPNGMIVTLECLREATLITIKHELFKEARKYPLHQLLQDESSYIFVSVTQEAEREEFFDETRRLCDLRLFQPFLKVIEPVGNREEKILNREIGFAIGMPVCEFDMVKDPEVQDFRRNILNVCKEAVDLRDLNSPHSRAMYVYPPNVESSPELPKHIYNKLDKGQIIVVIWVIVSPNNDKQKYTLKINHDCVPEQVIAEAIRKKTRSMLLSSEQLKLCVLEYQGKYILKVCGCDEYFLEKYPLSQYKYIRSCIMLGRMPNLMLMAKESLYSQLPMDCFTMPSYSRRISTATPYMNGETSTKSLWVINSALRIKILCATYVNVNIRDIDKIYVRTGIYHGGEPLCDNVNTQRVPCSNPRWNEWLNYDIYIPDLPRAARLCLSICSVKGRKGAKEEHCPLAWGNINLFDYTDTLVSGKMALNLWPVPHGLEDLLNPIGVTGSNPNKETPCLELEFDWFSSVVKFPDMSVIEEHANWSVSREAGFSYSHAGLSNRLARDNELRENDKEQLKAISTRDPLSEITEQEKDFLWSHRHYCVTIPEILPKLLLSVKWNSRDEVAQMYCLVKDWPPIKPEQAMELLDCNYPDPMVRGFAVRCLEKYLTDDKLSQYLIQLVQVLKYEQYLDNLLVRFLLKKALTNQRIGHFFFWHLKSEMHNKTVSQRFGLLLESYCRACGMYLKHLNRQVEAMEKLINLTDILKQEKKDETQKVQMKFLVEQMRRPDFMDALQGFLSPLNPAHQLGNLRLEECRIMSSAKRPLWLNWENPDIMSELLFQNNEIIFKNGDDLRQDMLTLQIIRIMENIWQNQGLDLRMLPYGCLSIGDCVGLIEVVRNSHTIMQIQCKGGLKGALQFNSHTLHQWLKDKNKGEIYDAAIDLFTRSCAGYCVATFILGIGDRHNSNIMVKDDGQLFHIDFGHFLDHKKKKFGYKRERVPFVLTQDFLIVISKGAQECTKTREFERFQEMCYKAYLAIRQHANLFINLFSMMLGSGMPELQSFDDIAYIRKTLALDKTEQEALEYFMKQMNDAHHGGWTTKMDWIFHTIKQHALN
T1 sequence (P27986 whole entry partner): as the sequence (P27986 whole entry partner) above

Compound	IC50 [1] [nM]	IC50 [2] [nM]	IC50 [3] [nM]	IC50 [4] [nM]	Selectivity of PI3Kα vs PI3Kβ [1]	AUC(0-t) [5] [ng·h/mL]	AUC(0-inf) [5] [ng·h/mL]	half-life [5] [h]	MRT [5] [h]	Tmax [5] [h]	Cmax [5] [ng/mL]	Selectivity of PI3Kα vs PI3Kγ [1]	Selectivity of PI3Kα vs PI3Kδ [1]
C[C@H](Nc1ccc2c(c1)OCCn1c-2nc(N2C(=O)OC[C@H]2C(F)F)c1F)C(N)=O [Example 10, (S)-2-((2-((S)-4-(difluoromethyl)-2-oxooxazolidin-3-yl)-3-fluoro-5,6-dihydrobenzo[f]imidazo[1,2-d][1,4]oxazepin-9-yl)amino)propanamide]	7.9	> 10000	1790	1400	>1266	–	–	–	–	–	–	–	–
C[C@@H](C(N)=O)N(C)c1ccc2c(c1)OCCn1cc(N3C(=O)OC[C@H]3C(F)F)nc1-2 [Example 43, (S)-2-((2-((S)-4-(difluoromethyl)-2-oxooxazolidin-3-yl)-5,6-dihydrobenzo[f]imidazo[1,2-d][1,4]oxazepin-9-yl)(methyl)amino)propanamide]	0.86	283	557	25	–	3440	3500	1	1.8	0.5	2060	–	–
C[C@H](Nc1ccc2c(c1)OCCn1cc(N3C(=O)N(C)C[C@H]3C(F)F)nc1-2)C(N)=O [Example 53, (S)-2-((2-((S)-5-(difluoromethyl)-3-methyl-2-oxoimidazolidin-1-yl)-5,6-dihydrobenzo[f]imidazo[1,2-d][1,4]oxazepin-9-yl)amino)propanamide]	5	6190	402	373	–	1280	1290	0.8	1.2	0.5	1090	80	–
C[C@H](Nc1cc(F)c2c(c1)OCCn1cc(N3C(=O)OC[C@H]3C(F)F)nc1-2)C(N)=O [Example 78, (S)-2-((2-((S)-4-(difluoromethyl)-2-oxooxazolidin-3-yl)-11-fluoro-5,6-dihydrobenzo[f]imidazo[1,2-d][1,4]oxazepin-9-yl)amino)propanamide]	5.2	2790	510	459	–	–	–	–	–	–	–	–	–
COC[C@H](Nc1ccc2c(c1F)OCCn1cc(N3C(=O)SC[C@H]3C(F)F)nc1-2)C(N)=O [Example 109, (S)-2-((2-((R)-4-(difluoromethyl)-2-oxothiazolidin-3-yl)-8-fluoro-5,6-dihydrobenzo[f]imidazo[1,2-d][1,4]oxazepin-9-yl)amino)-3-methoxypropanamide]	6.8	1070	1150	348	–	–	–	–	–	–	–	–	–
C[C@@H](C(N)=O)N(C)c1ccc2c(c1)OCCn1cc(N3C(=O)SC[C@H]3C(F)F)nc1-2 [Example 112, (S)-2-((2-((R)-4-(difluoromethyl)-2-oxothiazolidin-3-yl)-5,6-dihydrobenzo[f]imidazo[1,2-d][1,4]oxazepin-9-yl)(methyl)amino)propanamide]	2.2	523	478	69	–	–	–	–	–	–	–	–	–

The remaining lines, values ahead:

IC50 [1] [nM]	IC50 [2] [nM]	IC50 [3] [nM]	IC50 [4] [nM]	Selectivity of PI3Kα vs PI3Kβ [1]	AUC(0-t) [5] [ng·h/mL]	AUC(0-inf) [5] [ng·h/mL]	half-life [5] [h]	MRT [5] [h]	Tmax [5] [h]	Cmax [5] [ng/mL]	Selectivity of PI3Kα vs PI3Kγ [1]	Selectivity of PI3Kα vs PI3Kδ [1]	Compound
1.7	1870	363	213	–	–	–	–	–	–	–	–	–	CC(Nc1ccc2c(c1)OCCn1cc(N3C(=O)OC(C)[C@H]3C(F)F)nc1-2)C(N)=O (stereo in doubt) [Example 55, (R)-2-((2-((4S,5R)-4-(difluoromethyl)-5-methyl-2-oxooxazolidin-3-yl)-5,6-dihydrobenzo[f]imidazo[1,2-d][1,4]oxazepin-9-yl)amino)propanamide]
4	1430	447	410	–	–	–	–	–	–	–	–	–	CC(C)[C@H](Nc1ccc2c(c1)OCCn1cc(N3C(=O)OC[C@H]3C(F)F)nc1-2)C(N)=O [Example 38, (S)-2-((2-((S)-4-(difluoromethyl)-2-oxooxazolidin-3-yl)-5,6-dihydrobenzo[f]imidazo[1,2-d][1,4]oxazepin-9-yl)amino)-3-methylbutanamide]
9.3	4570	2080	653	492	–	–	–	–	–	–	223	70	C[C@H](Nc1ccc2c(c1)OCCn1cc(N3CC(F)(F)COC3=O)nc1-2)C(N)=O [Example 66, (S)-2-((2-(5,5-difluoro-2-oxo-1,3-oxazinan-3-yl)-5,6-dihydrobenzo[f]imidazo[1,2-d][1,4]oxazepin-9-yl)amino)propanamide]
–	–	–	–	–	2070	2090	1	1.6	0.5	1290	–	–	COC[C@H](Nc1ccc2c(c1)OCCn1cc(N3C(=O)OC[C@H]3C(F)F)nc1-2)C(N)=O [Example 90, (S)-2-((2-((S)-4-(difluoromethyl)-2-oxooxazolidin-3-yl)-5,6-dihydrobenzo[f]imidazo[1,2-d][1,4]oxazepin-9-yl)amino)-3-methoxypropanamide]
2.1	1650	510	190	–	–	–	–	–	–	–	–	90	C[C@H](Nc1ccc2c(c1)OCCn1cc(N3C(=O)CC[C@H]3C(F)F)nc1-2)C(N)=O [Example 97, (S)-2-((2-((S)-2-(difluoromethyl)-5-oxopyrrolidin-1-yl)-5,6-dihydrobenzo[f]imidazo[1,2-d][1,4]oxazepin-9-yl)amino)propanamide]
2.5	1950	505	280	779	–	–	–	–	–	–	202	112	C[C@H](Nc1ccc2c(c1)OCCn1cc(N3C(=O)CC[C@H]3CC#N)nc1-2)C(N)=O [Example 117, (S)-2-((2-((S)-2-(cyanomethyl)-5-oxopyrrolidin-1-yl)-5,6-dihydrobenzo[f]imidazo[1,2-d][1,4]oxazepin-9-yl)amino)propanamide]
4.7	988	530	200	210	–	–	–	–	–	–	113	43	COC[C@H](Nc1ccc2c(c1)OCCn1cc(N3C(=O)OC[C@H]3CC#N)nc1-2)C(N)=O [Example 120, (S)-2-((2-((R)-4-(cyanomethyl)-2-oxooxazolidin-3-yl)-5,6-dihydrobenzo[f]imidazo[1,2-d][1,4]oxazepin-9-yl)amino)-3-methoxypropanamide]
